According to patent US20080275086A1, “Dpp-Iv Inhibitors” (priority 2005, published 2008):
Where a name gives a salt, the structure may show the parent alone.

The compounds below were run against T1, DPP-IV (Homo sapiens, UniProt P27487) (assay: Continuous fluorimetric assay of inhibition of DPP-IV peptidase activity (Gly-Pro-AMC cleavage)). Conditions: not given.
T1 construct: Soluble human DPP-IV lacking the transmembrane anchor (Gly31-Pro766); Pre-Pro-alpha-mating factor leader (secretion fusion) (N, cleaved yes); made in house
Type: biochemical
Procedure: Inhibition of DPP-IV peptidase activity was monitored with a continuous fluorimetric assay. This assay is based on the cleavage of the substrate Gly-Pro-AMC (Bachem) by DPP-IV, releasing free AMC. The assay is carried out in 96-well microtiterplates. In a total volume of 100 μL, compounds are preincubated with 50 pM DPP-IV employing a buffer containing 10 mM Hepes, 150 mM NaCl, 0.005% Tween 20 (pH 7.4). The reaction is started by the addition of 16 μM substrate and the fluorescence of liberated AMC is detected for 10 minutes at 25° C. with a fluorescence reader (BMG-Fluostar; BMG-Technologies) using an excitation wavelength of 370 nm and an emission wavelength of 450 nm. The final concentration of DMSO is 1%. The inhibitory potential of the compounds were determined.
Soluble human DPP-IV lacking the transmembrane anchor (Gly31-Pro766) was expressed in a recombinant YEAST-strain as Pre-Pro-alpha-mating fusion. The secreted product (rhuDPP-IV-Gly31-Pro766) was purified from fermentation broth (>90% purity) and used for inhouse screening.

T1 sequence (P27487 31-766): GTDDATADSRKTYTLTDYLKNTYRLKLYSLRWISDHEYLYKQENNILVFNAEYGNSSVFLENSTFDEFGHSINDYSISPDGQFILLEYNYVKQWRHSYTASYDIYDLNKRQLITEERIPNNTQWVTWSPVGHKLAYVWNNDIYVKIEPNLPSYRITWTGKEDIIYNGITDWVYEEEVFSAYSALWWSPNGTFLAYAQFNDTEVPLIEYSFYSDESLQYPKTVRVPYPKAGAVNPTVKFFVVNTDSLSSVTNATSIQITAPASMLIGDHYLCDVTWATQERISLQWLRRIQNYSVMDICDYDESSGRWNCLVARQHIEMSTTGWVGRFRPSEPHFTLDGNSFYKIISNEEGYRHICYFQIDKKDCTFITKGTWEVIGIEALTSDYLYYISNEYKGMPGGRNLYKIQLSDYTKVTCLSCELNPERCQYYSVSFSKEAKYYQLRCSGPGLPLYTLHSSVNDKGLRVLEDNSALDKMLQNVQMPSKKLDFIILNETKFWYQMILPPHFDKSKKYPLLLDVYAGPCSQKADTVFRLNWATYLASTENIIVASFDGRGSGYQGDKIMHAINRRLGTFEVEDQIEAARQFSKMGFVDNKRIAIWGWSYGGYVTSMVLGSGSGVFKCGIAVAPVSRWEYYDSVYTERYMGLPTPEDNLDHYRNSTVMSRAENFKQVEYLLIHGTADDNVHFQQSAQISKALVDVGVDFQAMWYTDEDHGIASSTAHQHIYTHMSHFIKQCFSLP

Row | Structure (SMILES) | IC50 [nM]
1 | N[C@@H](CC(=O)N1CCC(N2C(=O)Cc3ccccc32)CC1)Cc1ccccc1F [Example 45] | < 500
2 | N#CC1(c2ccccc2)CCN(C(=O)C[C@H](N)Cc2ccccc2F)CC1 [Example 5] | < 500

Same assay, conditions: 50 pM DPP-IV, 16 μM Gly-Pro-AMC, pH 7.4, 25° C.; values grouped in 2 classes; read-out: IC50 for inhibition of DPP-IV peptidase activity

Row | Structure (SMILES) | IC50 [nM]
3 | N[C@@H](CC(=O)N1CCCC1Cc1ccccc1)Cc1ccccc1F (mixture of isomers) [Example 12] | < 500
4 | N[C@@H](CC(=O)N1CCC(c2ccccc2C(F)(F)F)CC1)Cc1ccccc1F [Example 38] | < 500
5 | Cc1ccc(S(=O)(=O)C2CCN(C(=O)C[C@H](N)Cc3ccccc3F)CC2)cc1 [Example 39] | < 500
6 | COc1ccccc1C1CCN(C(=O)C[C@H](N)Cc2ccccc2F)CC1 [Example 9] | < 500
7 | N[C@@H](CC(=O)N1CCC(c2nnc(-c3ccccc3)o2)CC1)Cc1ccccc1F [Example 21] | < 500
8 | N[C@@H](CC(=O)N1CC[C@H](NC(=O)c2ccccc2)C1)Cc1ccccc1F [Example 53, N-((S)-1-((R)-3-amino-4-(2-fluorophenyl)butanoyl)pyrrolidin-3-yl)benzamide trifluoroacetic acid salt] | < 500
9 | N[C@@H](CC(=O)N1CCC(F)CC1)Cc1ccccc1F [Example 44] | 501 to 2000
10 | N[C@@H](CC(=O)N1CCC(c2nc(-c3cccc(C(F)(F)F)c3)no2)CC1)Cc1ccccc1F [Example 40] | 501 to 2000
11 | N[C@@H](CC(=O)N1CCCC(Cc2ccccc2Cl)C1)Cc1ccccc1F (some centres unmarked) [Example 33] | 501 to 2000
12 | N[C@@H](CC(=O)N1CCCC(F)(F)C1)Cc1ccccc1F [Example 30] | 501 to 2000
13 | N[C@@H](CC(=O)N1CCC(c2nc(-c3cccnc3)no2)CC1)Cc1ccccc1F [Example 23] | < 500
14 | N[C@@H](CC(=O)N1CCC(C(=O)NCCO)CC1)Cc1ccccc1F [Example 24] | 501 to 2000
15 | N[C@@H](CC(=O)N1CCC(c2nc3ccccc3[nH]2)CC1)Cc1ccccc1F [Example 32] | < 500
16 | N[C@@H](CC(=O)N1CCC(Nc2cccc(S(=O)(=O)C(F)(F)F)c2)CC1)Cc1ccccc1F [Example 31] | < 500
17 | N[C@@H](CC(=O)N1CCCC1Cc1cccnc1)Cc1ccccc1F (some centres unmarked) [Example 13] | < 500
18 | N[C@@H](CC(=O)N1CCC(C(F)(F)F)CC1)Cc1ccccc1F [Example 27] | < 500
19 | N[C@@H](CC(=O)N1CCC(n2nnc3ccccc32)CC1)Cc1ccccc1F [Example 19] | < 500
20 | N[C@@H](CC(=O)N1CCC(c2ccc(Cl)cc2)CC1)Cc1ccccc1F [Example 35] | 501 to 2000
21 | N[C@@H](CC(=O)N1CCC(CO)CC1)Cc1ccccc1F [Example 2] | 501 to 2000
22 | N[C@@H](CC(=O)N1CCC(N2CCCCC2=O)CC1)Cc1ccccc1F [Example 8] | 501 to 2000
23 | N[C@@H](CC(=O)N1CCC(c2nc(-c3cnccn3)no2)CC1)Cc1ccccc1F [Example 26] | < 500
24 | N[C@@H](CC(=O)N1CCC(Oc2ccccc2)CC1)Cc1ccccc1F [Example 20] | < 500
25 | COc1ccc(C2CCN(C(=O)C[C@H](N)Cc3ccccc3F)CC2)cc1 [Example 7] | < 500
26 | N[C@@H](CC(=O)N1CCCC1Cc1ccccn1)Cc1ccccc1F (some centres unmarked) [Example 18] | < 500
27 | N[C@@H](CC(=O)N1CC(C(=O)NCc2ccccc2)C1)Cc1ccccc1F [Example 49, 1-[3-(R)-amino-4-(2-fluoro-phenyl)-butyryl]-azetidine-3-carboxylic acid benzylamide] | 501 to 2000
28 | N[C@@H](CC(=O)N1CCCC(F)C1)Cc1ccccc1F (some centres unmarked) [Example 43] | 501 to 2000
29 | N[C@@H](CC(=O)N1CCC(O)CC1)Cc1ccccc1F [Example 10] | 501 to 2000

Row | Structure (SMILES) | IC50 [nM]
30 | N[C@@H](CC(=O)N1CCC(n2c(=O)[nH]c3ccccc32)CC1)Cc1ccccc1F [Example 6] | < 500
31 | N[C@@H](CC(=O)N1CCCC(C(F)(F)F)C1)Cc1ccccc1F (some centres unmarked) [Example 46] | 501 to 2000
32 | N[C@H](Cc1ccccc1F)CS(=O)(=O)N1CCC[C@H]1CNS(=O)(=O)c1ccccc1 [Example 56, N-{(S)-1-[(R)-2-Amino-3-(2-fluoro-phenyl)-propane-1-sulphonyl]-pyrrolidin-2-ylmethyl}-benzenesulfonamide] | < 500
33 | N[C@@H](CC(=O)N1CCCC1Cc1ccc(Cl)cc1)Cc1ccccc1F (some centres unmarked) [Example 17] | < 500
34 | N[C@@H](CC(=O)N1CC[C@H](NC(=O)C2CC2)C1)Cc1ccccc1F [Example 52, N-((S)-1-((R)-3-amino-4-(2-fluorophenyl)butanoyl)pyrrolidin-3-yl)cyclopropane-carboxamide trifluoroacetic acid salt] | < 500
35 | N[C@@H](CC(=O)N1CCC(Cc2ccccc2)CC1)Cc1ccccc1F [Example 1] | 501 to 2000
36 | N[C@@H](CC(=O)N1CC[C@@H](NC(=O)c2ccccc2)C1)Cc1ccccc1F [Example 55, N-((R)-1-((R)-3-amino-4-(2-fluorophenyl)butanoyl)pyrrolidin-3-yl)benzamide trifluoroacetic acid salt] | < 500
37 | N[C@@H](CC(=O)N1CCC[C@H]1Cc1ccccc1)Cc1ccccc1F (single isomer, unassigned) [Example 47] | < 500
38 | N[C@@H](CC(=O)N1CCC(N(C2CC2)S(=O)(=O)c2ccc(Cl)cc2)CC1)Cc1ccccc1F [Example 36] | < 500
39 | N[C@@H](CC(=O)N1CCC(c2ccccc2)CC1)Cc1ccccc1F [Example 4] | < 500
40 | N[C@@H](CC(=O)N1CC[C@@H](NC(=O)C2CC2)C1)Cc1ccccc1F [Example 54, N-((R)-1-((R)-3-amino-4-(2-fluorophenyl)butanoyl)pyrrolidin-3-yl)cyclopropane-carboxamide trifluoroacetic acid salt] | < 500
41 | N[C@@H](CC(=O)N1CCC[C@@H]1Cc1ccccc1)Cc1ccccc1F (single isomer, unassigned) [Example 48] | < 500
42 | CS(=O)(=O)c1ccc(-c2noc(C3CCN(C(=O)C[C@H](N)Cc4ccccc4F)CC3)n2)cc1 [Example 22] | < 500
43 | N[C@@H](CC(=O)N1CCC(n2c(=O)[nH]c3cc(Cl)ccc32)CC1)Cc1ccccc1F [Example 14] | < 500
44 | N[C@@H](CC(=O)N1CCC(c2nc(-c3ccncc3)no2)CC1)Cc1ccccc1F [Example 15] | < 500
45 | N[C@@H](CC(=O)N1CCCC(Oc2ccccc2)C1)Cc1ccccc1F (some centres unmarked) [Example 34] | < 500
46 | N[C@@H](CC(=O)N1CCC(c2nnc(-c3ccc(F)cc3)o2)CC1)Cc1ccccc1F [Example 28] | < 500
47 | N[C@@H](CC(=O)N1CC(N2CCN(c3ccccn3)CC2)C1)Cc1ccccc1F [Example 51, (3R)-3-amino-4-(2-fluoro-phenyl)-1-[3-(4-pyridin-2-yl-piperazin-1-yl)-azetidin-1-yl]-butan-1-one trifluoroacetic acid] | 501 to 2000
48 | N[C@@H](CC(=O)N1CCC(N2CCOCC2)CC1)Cc1ccccc1F [Example 25] | 501 to 2000
49 | COc1cc(OC)nc(C2CCN(C(=O)C[C@H](N)Cc3ccccc3F)CC2)n1 [Example 29] | < 500
50 | N[C@@H](CC(=O)N1CCC(c2cccc(F)c2)CC1)Cc1ccccc1F [Example 37] | 501 to 2000
51 | N[C@@H](CC(=O)N1CCCC1Cc1cccc(Cl)c1)Cc1ccccc1F (some centres unmarked) [Example 16] | < 500
52 | N[C@@H](CC(=O)N1CCC(c2cccc(Cl)c2)CC1)Cc1ccccc1F [Example 42] | 501 to 2000
53 | N[C@@H](CC(=O)N1CCC(c2nnc(-c3cccc(C(F)(F)F)c3)o2)CC1)Cc1ccccc1F [Example 41] | 501 to 2000
54 | N[C@@H](CC(=O)N1CCC(N(C2CC2)S(=O)(=O)c2ccccc2)CC1)Cc1ccccc1F [Example 3] | < 500
55 | CCN(CC)C(=O)C1CCCN(C(=O)C[C@H](N)Cc2ccccc2F)C1 (some centres unmarked) [Example 11] | 501 to 2000
56 | N[C@@H](CC(=O)N1CC(C(=O)Nc2ccccn2)C1)Cc1ccccc1F [Example 50] | 501 to 2000
